Several values for one entry are separate records, joined by “and”; a condition that tells them apart may be missing. Identical values can stand only once. Inconclusive results and toxic doses are left out. How the source made its calls: active means survival T/C of 150% or more; inactive means T/C below 125% in these data.
Test system: P388 leukemia ip, CD2F1 mice, survival T/C
Experiment: NCI In Vivo Anticancer Drug Screen. Data for tumor model P388 Leukemia (intraperitoneal) in CD2F1 (CDF1) mice
Details: endpoint: median survival time, higher = longer survival
Description: The antitumor activity of compounds was measured in mice bearing transplantable tumors. Survival or tumor size were measured and the results are expressed as the measurement made in the treated group (T) divided by the measurement made in the vehicle treated control group (C). The tumor model used in this assay is P388 Leukemia (intraperitoneal) in CD2F1 (CDF1) mice

[1] = dose: 50.0 mg/kg/injection, schedule: Q01DX005 (ip), vehicle: Klucel (hydroxypropylcellulose) (HPC)
[2] = dose: 100.0 mg/kg/injection, schedule: Q01DX005 (ip), vehicle: Klucel (hydroxypropylcellulose) (HPC)
[3] = dose: 200.0 mg/kg/injection, schedule: Q01DX005 (ip), vehicle: Klucel (hydroxypropylcellulose) (HPC)
[4] = dose: 50.0 mg/kg/injection, schedule: Q01DX009 (ip), vehicle: saline
[5] = dose: 50.0 mg/kg/injection, schedule: Q01DX005 (ip), vehicle: saline with Tween-80
[6] = dose: 100.0 mg/kg/injection, schedule: Q01DX005 (ip), vehicle: saline with Tween-80
[7] = dose: 200.0 mg/kg/injection, schedule: Q01DX005 (ip), vehicle: saline with Tween-80
[8] = dose: 60.0 mg/kg/injection, schedule: Q01DX005 (ip), vehicle: saline with Tween-80
[9] = dose: 120.0 mg/kg/injection, schedule: Q01DX005 (ip), vehicle: saline with Tween-80
[10] = dose: 240.0 mg/kg/injection, schedule: Q01DX005 (ip), vehicle: saline with Tween-80

Measured: T/C

N#CC1CC=CCN1CCc1ccccc1 (stereo not drawn)
inactive: dose: 12.5 mg/kg/injection, schedule: Q01DX005 (ip), vehicle: other 101 % of control | dose: 25.0 mg/kg/injection, schedule: Q01DX005 (ip), vehicle: other 101 % of control | dose: 50.0 mg/kg/injection, schedule: Q01DX005 (ip), vehicle: other 111 % of control | dose: 50.0 mg/kg/injection, schedule: Q01DX005 (ip), vehicle: saline + Tween-80 + alcohol 116 % of control

C/C(=C(/O)c1ccccc1)c1nc2ccc(Cl)cc2[nH]c1=O
inactive: dose: 60.0 mg/kg/injection, schedule: Q01DX005 (ip), vehicle: Klucel + Tween-80 103 % of control | dose: 120.0 mg/kg/injection, schedule: Q01DX005 (ip), vehicle: Klucel + Tween-80 94 % of control | dose: 240.0 mg/kg/injection, schedule: Q01DX005 (ip), vehicle: Klucel + Tween-80 91 % of control

c1ccc(N2OCC3c4ccccc4-c4ccccc4C32)cc1 (stereo not drawn)
inactive: dose: 50.0 mg/kg/injection, schedule: Q04DX002 (ip), vehicle: suspension in saline 100 % of control | dose: 100.0 mg/kg/injection, schedule: Q04DX002 (ip), vehicle: suspension in saline 104 % of control | dose: 200.0 mg/kg/injection, schedule: Q04DX002 (ip), vehicle: suspension in saline 97 % of control

NCCSSc1ccc([N+](=O)[O-])cc1
inactive: dose: 12.5 mg/kg/injection, schedule: Q04DX002 (ip), vehicle: Klucel (hydroxypropylcellulose) (HPC) 95 % of control | dose: 25.0 mg/kg/injection, schedule: Q04DX002 (ip), vehicle: Klucel (hydroxypropylcellulose) (HPC) 86 % of control

CN(C)C(=O)N1OC(CN)CC1=O (stereo not drawn)
inactive: dose: 60.0 mg/kg/injection, schedule: Q01DX005 (ip), vehicle: Klucel (hydroxypropylcellulose) (HPC) 105 % of control | dose: 120.0 mg/kg/injection, schedule: Q01DX005 (ip), vehicle: Klucel (hydroxypropylcellulose) (HPC) 104 % of control | dose: 240.0 mg/kg/injection, schedule: Q01DX005 (ip), vehicle: Klucel (hydroxypropylcellulose) (HPC) 105 % of control

CC(=O)c1c(N)n(C)c(=O)n(C)c1=O
inactive: dose: 1.56 mg/kg/injection, schedule: Q01DX009 (ip), vehicle: saline with Tween-80 101 % of control | dose: 3.13 mg/kg/injection, schedule: Q01DX009 (ip), vehicle: saline with Tween-80 100 % of control | dose: 6.25 mg/kg/injection, schedule: Q01DX009 (ip), vehicle: saline with Tween-80 100 % of control and 95 % of control

COc1ccc2c(c1)C(=O)/C(=N\O)C2
inactive: [1] 92 % of control | [2] 101 % of control | [3] 92 % of control

CCOC1=NC(C)C(C)N1 (stereo not drawn)
inactive: dose: 25.0 mg/kg/injection, schedule: Q01DX001 (ip), vehicle: saline 101 % of control | dose: 50.0 mg/kg/injection, schedule: Q01DX001 (ip), vehicle: saline 101 % of control | dose: 100.0 mg/kg/injection, schedule: Q01DX001 (ip), vehicle: saline 108 % of control and 97 % of control

COc1ccccc1N1C(=O)/C(=N\OC(=O)c2c(-c3c(Cl)cccc3Cl)noc2C)SC1=S
inactive: [4] 104 % of control | dose: 100.0 mg/kg/injection, schedule: Q01DX009 (ip), vehicle: saline 90 % of control | dose: 200.0 mg/kg/injection, schedule: Q01DX009 (ip), vehicle: saline 89 % of control

COC1=CC2(C=CC1=O)CCC(=O)O2 (stereo not drawn)
inactive: dose: 12.5 mg/kg/injection, schedule: Q01DX005 (ip), vehicle: saline with Tween-80 119 % of control | dose: 25.0 mg/kg/injection, schedule: Q01DX005 (ip), vehicle: saline with Tween-80 111 % of control | [5] 115 % of control and 113 % of control | [6] 108 % of control

NC(C(=O)O)C(=O)O
inactive: [5] 101 % of control | [6] 100 % of control | [7] 89 % of control

CCCCNC(=S)N/N=C1/CC(=O)N(c2ccccc2)C1c1ccccc1 (stereo not drawn)
inactive: [8] 89 % of control | [9] 89 % of control

S1SSSSSSS1
inactive: dose: 8.0 mg/kg/injection, schedule: Q01DX005 (ip), vehicle: Klucel (hydroxypropylcellulose) (HPC) 103 % of control | dose: 16.0 mg/kg/injection, schedule: Q01DX005 (ip), vehicle: Klucel (hydroxypropylcellulose) (HPC) 106 % of control | dose: 32.0 mg/kg/injection, schedule: Q01DX005 (ip), vehicle: Klucel (hydroxypropylcellulose) (HPC) 104 % of control | dose: 64.0 mg/kg/injection, schedule: Q01DX005 (ip), vehicle: Klucel (hydroxypropylcellulose) (HPC) 100 % of control

C[N+]1(C)CCC(=O)C(c2ccccc2)C1 (stereo not drawn)
inactive: dose: 50.0 mg/kg/injection, schedule: Q04DX003 (ip), vehicle: saline 113 % of control | dose: 100.0 mg/kg/injection, schedule: Q04DX003 (ip), vehicle: saline 113 % of control

CN1CCN(N=Nc2ccccc2Cl)CC1
inactive: dose: 12.5 mg/kg/injection, schedule: Q01DX009 (ip), vehicle: saline 99 % of control | dose: 25.0 mg/kg/injection, schedule: Q01DX009 (ip), vehicle: saline 111 % of control | [4] 103 % of control and 98 % of control

CCOc1ccc(NC(=S)NC2OC(COC(C)=O)C(OC(C)=O)C(OC(C)=O)C2OC(C)=O)cc1 (stereo not drawn)
inactive: [5] 101 % of control | [6] 91 % of control | [7] 92 % of control

Cc1cc2nc(CC(=O)c3ccccc3)c(=O)[nH]c2cc1C
inactive: [8] 90 % of control | [9] 90 % of control | [10] 87 % of control

CC1=NN(C(=O)c2ccccc2)C(=O)C1N=Nc1ccc(C(=O)O)cc1 (stereo not drawn)
inactive: dose: 25.0 mg/kg/injection, schedule: Q01DX005 (ip), vehicle: Klucel (hydroxypropylcellulose) (HPC) 110 % of control | [1] 95 % of control | [2] 104 % of control | [3] 99 % of control

Cc1cc(N(C)C)cc(C)c1N=Nc1cc[n+]([O-])cc1
inactive: dose: 25.0 mg/kg/injection, schedule: Q01DX009 (ip), vehicle: saline with Tween-80 95 % of control | dose: 50.0 mg/kg/injection, schedule: Q01DX009 (ip), vehicle: saline with Tween-80 94 % of control | dose: 100.0 mg/kg/injection, schedule: Q01DX009 (ip), vehicle: saline with Tween-80 103 % of control | dose: 200.0 mg/kg/injection, schedule: Q01DX009 (ip), vehicle: saline with Tween-80 95 % of control

CC(CN(C)C)C(=O)C(=Cc1ccccc1)C(=O)C(C)CN(C)C (stereo not drawn)
inactive: dose: 60.0 mg/kg/injection, schedule: Q01DX005 (ip), vehicle: saline 100 % of control | dose: 120.0 mg/kg/injection, schedule: Q01DX005 (ip), vehicle: saline 108 % of control | dose: 240.0 mg/kg/injection, schedule: Q01DX005 (ip), vehicle: saline 102 % of control

COC(=O)c1nc2c(c(=O)n(C)c(=O)n2C)n1C
inactive: [8] 94 % of control | [9] 96 % of control | [10] 89 % of control

COC(=O)c1cc(=O)n(-c2ccccc2F)c(SC)n1
inactive: dose: 25.0 mg/kg/injection, schedule: Q04DX003 (ip), vehicle: Klucel (hydroxypropylcellulose) (HPC) 105 % of control | dose: 50.0 mg/kg/injection, schedule: Q04DX003 (ip), vehicle: Klucel (hydroxypropylcellulose) (HPC) 104 % of control | dose: 100.0 mg/kg/injection, schedule: Q04DX003 (ip), vehicle: Klucel (hydroxypropylcellulose) (HPC) 106 % of control

From PubChem BioAssay AID330 (DTP/NCI, 2004)
